Reference: patent publication US8431593B2, “Heteroaryl amide derivatives” (H. Lundbeck A/S, priority 2006, dated 2013)

Biological target: T1, P2X7 receptor (Homo sapiens, UniProt Q99572)
T1 construct: host or cells: SH-SY5Y
T1 sequence (Q99572 1-595): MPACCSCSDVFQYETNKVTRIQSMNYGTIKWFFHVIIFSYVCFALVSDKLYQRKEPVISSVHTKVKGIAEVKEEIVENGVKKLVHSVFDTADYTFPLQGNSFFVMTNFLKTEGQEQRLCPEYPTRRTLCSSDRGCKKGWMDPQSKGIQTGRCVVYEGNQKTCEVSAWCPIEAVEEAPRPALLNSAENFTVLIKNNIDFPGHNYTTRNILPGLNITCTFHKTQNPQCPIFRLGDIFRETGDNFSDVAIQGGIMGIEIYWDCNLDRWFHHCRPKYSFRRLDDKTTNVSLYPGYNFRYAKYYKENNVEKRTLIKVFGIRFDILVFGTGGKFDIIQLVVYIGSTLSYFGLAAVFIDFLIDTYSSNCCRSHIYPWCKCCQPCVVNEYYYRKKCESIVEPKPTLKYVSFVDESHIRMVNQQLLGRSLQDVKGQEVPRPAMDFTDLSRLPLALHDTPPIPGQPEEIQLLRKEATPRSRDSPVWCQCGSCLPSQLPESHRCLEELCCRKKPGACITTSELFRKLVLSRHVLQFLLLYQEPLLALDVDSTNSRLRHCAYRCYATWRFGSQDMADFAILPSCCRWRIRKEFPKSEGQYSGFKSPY
Experiment: P2X7 calcium mobilization assay, high throughput, antagonist activity (Example 4A)
Type: cell-based
Settings: not given
Outline: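 Cells plated 100,000/well the day before; after 1 h dye loading and one rinse, cells were preincubated 1 h at room temperature with test compound. Calcium mobilization then read on FLIPR^TETRA; maximum RFU corrected by subtracting mean no-agonist response and referenced to mean agonist-control maximum.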

Q: With `CC(C)(CO)NC(=O)c1cn2c(C(=O)NC[C@@H]3CC[C@H]4C[C@@H]3C4(C)C)cccc2n1` [Compound 520, 5-N-{[(1S,2R,5S)-6,6-dimethylbicyclo[3.1.1]hept-2-yl]methyl}-2-N-(2-hydroxy-1,1-dimethylethyl)imidazo[1,2-a]pyridine-2,5-dicarboxamide] as the molecule, how does the IC50 read?
A: Its IC50 is < 2000 nM.

Same assay, conditions: 50% decrease in the fluorescence response of cells exposed to 80 μM 2′(3′)-O-(4-benzoyl-benzoyl)adenosine 5′-triphosphate; Example 4A; read-out: IC50

Q: Which IC50 does the source give for `CC1(C)[C@H]2CC[C@@H](CNC(=O)c3cccc4nc(C(=O)NC5(CO)CCCC5)cn34)[C@@H]1C2` [Compound 518, 5-N-{[(1S,2R,5S)-6,6-dimethylbicyclo[3.1.1]hept-2-yl]methyl}-2-N-[1-(hydroxymethyl)cyclopentyl] imidazo[1,2-a]pyridine-2,5-dicarboxamide] here?
A: Its IC50 is < 2000 nM.

Q: For `CC1(C)[C@H]2CC[C@@H](CNC(=O)c3cccc4nc(C(=O)N[C@@H]5CCCC[C@H]5O)cn34)[C@@H]1C2` [Compound 519, 5-N-{[(1S,2R,5S)-6,6-dimethylbicyclo[3.1.1]hept-2-yl]methyl}-2-N-[(1R,2R)-2-hydroxycyclohexyl] imidazo[1,2-a]pyridine-2,5-dicarboxamide], which IC50 is on record?
A: Its IC50 is < 2000 nM.

Q: How did the IC50 turn out when `CC(C)(C)[C@@H](CO)NC(=O)c1cn2c(C(=O)NC[C@@H]3CC[C@H]4C[C@@H]3C4(C)C)cccc2n1` [Compound 522, 5-N-{[(1S,2R,5S)-6,6-dimethylbicyclo[3.1.1]hept-2-yl]methyl}-2-N-[(1S)-1-(hydroxymethyl)-2,2-dimethylpropyl] imidazo[1,2-a] pyridine-2,5-dicarboxamide] was run?
A: The IC50 was < 2000 nM.

Q: `CC(C)(C)C(O)CNC(=O)c1cn2c(C(=O)NC[C@@H]3CC[C@H]4C[C@@H]3C4(C)C)cccc2n1` (stereo partly drawn) [Compound 528, 5-N-{[(1S,2R,5S)-6,6-dimethylbicyclo[3.1.1]hept-2-yl]methyl}-2-N-(2-hydroxy-3,3-dimethylbutyl)imidazo [1,2-a]pyridine-2,5-dicarboxamide] was tested. Which IC50 did it give?
A: Its IC50 is < 2000 nM.

Q: Which IC50 does the source give for `O=C(NCC12CC3CC(CC(C3)C1)C2)c1cccc2nc(C(=O)N3CCOCC3)cn12` [Compound 529, N-(adamantan-1-ylmethyl)-2-(morpholin-4-ylcarbonyl)imidazo[1,2-a]pyridine-5-carboxamide] here?
A: Its IC50 is < 2000 nM.

Q: Which IC50 does the source give for `Cn1ccnc1SCc1cn2c(C(=O)NCC34CC5CC(CC(C5)C3)C4)cccc2n1` [Compound 530, N-(adamantan-1-ylmethyl)-2-{[(1-methyl-1H-imidazol-2-yl)thio]methyl}imidazo [1,2-a]pyridine-5-carboxamide] here?
A: Its IC50 is < 2000 nM.

Q: For `O=C(NCC12CC3CC(CC(C3)C1)C2)c1cccc2nc(CC(=O)N3CC[C@@H](O)C3)cn12` [Compound 531, N-(adamantan-1-ylmethyl)-2-{2-[(3R)-3-hydroxypyrrolidin-1-yl]-2-oxoethyl}imidazo[1,2-a]pyridine-5-carboxamide], which IC50 is on record?
A: The IC50 was < 2000 nM.

Q: How did the IC50 turn out when `Cn1nnnc1SCc1cn2c(C(=O)NCC34CC5CC(CC(C5)C3)C4)cccc2n1` [Compound 532, N-(adamantan-1-ylmethyl)-2-{[(1-methyl-1H-tetrazol-5-yl)thio]methyl}imidazo [1,2-a]pyridine-5-carboxamide] was run?
A: Its IC50 is < 2000 nM.

Q: Which IC50 does the source give for `CCOC(=O)Cc1cn2c(C(=O)NCC(CC(C)C)c3cccnc3)cccc2n1` (stereo not drawn) [Compound 533, ethyl {5-[(4-methyl-2-pyridin-3-ylpentyl)carbamoyl]imidazo[1,2-a]pyridin-2-yl}acetate] here?
A: The IC50 was < 2000 nM.

Q: How did the IC50 turn out when `CCNCc1cn2c(C(=O)NCC34CC5CC(CC(C5)C3)C4)cccc2n1` [Compound 534, N-(adamantan-1-ylmethyl)-2-[(ethylamino)methyl] imidazo[1,2-a]pyridine-5-carboxamide] was run?
A: Its IC50 is < 2000 nM.

Q: With `CC(CO)c1cn2c(C(=O)NCC34CC5CC(CC(C5)C3)C4)cccc2n1` (stereo not drawn) [Compound 535, N-(adamantan-1-ylmethyl)-2-(2-hydroxy-1-methylethyl)imidazo[1,2-a]pyridine-5-carboxamide] as the molecule, how does the IC50 read?
A: The IC50 was < 2000 nM.

Q: Which IC50 does the source give for `O=C(NCC12CC3CC(CC(C3)C1)C2)c1cccc2nc(CC(=O)N3CCSCC3)cn12` [Compound 536, N-(adamantan-1-ylmethyl)-2-(2-oxo-2-thiomorpholin-4-ylethyl)imidazo[1,2-a]pyridine-5-carboxamide] here?
A: Its IC50 is < 2000 nM.

Q: With `O=C(NCC12CC3CC(CC(C3)C1)C2)c1cccc2nc(CN3CCS(=O)(=O)CC3)cn12` [Compound 537, N-(adamantan-1-ylmethyl)-2-[(1,1-dioxidothiomorpholin-4-yl)methyl]imidazo[1,2-a]pyridine-5-carboxamide] as the molecule, how does the IC50 read?
A: The IC50 was < 2000 nM.

Q: For `O=C(NCC12CC3CC(CC(C3)C1)C2)c1cccc2nc(CN3C[C@H](O)CC3=O)cn12` [Compound 538, N-(adamantan-1-ylmethyl)-2-{[(4R)-4-hydroxy-2-oxopyrrolidin-1-yl]methyl}imidazo[1,2-a]pyridine-5-carboxamide], which IC50 is on record?
A: The IC50 was < 2000 nM.

Q: Which IC50 does the source give for `CC(C)(CO)c1cn2c(C(=O)NCC34CC5CC(CC(C5)C3)C4)cccc2n1` [Compound 539, N-(adamantan-1-ylmethyl)-2-(2-hydroxy-1,1-dimethylethyl)imidazo [1,2-a]pyridine-5-carboxamide] here?
A: The IC50 was < 2000 nM.

Q: For `O=C(CC12CC3CC(CC(C3)C1)C2)Nc1cccc2nc(CSc3nnc[nH]3)cn12` [Compound 540, 2-adamantan-1-yl-N-{2-[(4H-1,2,4-triazol-3-ylthio)methyl]imidazo [1,2-a]pyridin-5-yl}acetamide], which IC50 is on record?
A: The IC50 was < 2000 nM.

Q: With `CCOC(=O)C(=O)N(CC)Cc1cn2c(C(=O)NCC34CC5CC(CC(C5)C3)C4)cccc2n1` [Compound 541, ethyl [({5-[(adamantan-1-ylmethyl)carbamoyl]imidazo[1,2-a]pyridin-2-yl}methyl)(ethyl)amino] (oxo)acetate] as the molecule, how does the IC50 read?
A: The IC50 was < 2000 nM.

Q: Which IC50 does the source give for `O=C(NCC12CC3CC(CC(C3)C1)C2)c1cccc2nc(CSc3ncc[nH]3)cn12` [Compound 542, N-(adamantan-1-ylmethyl)-2-[(1H-imidazol-2-ylthio)methyl] imidazo [1,2-a]pyridine-5-carboxamide] here?
A: The IC50 was < 2000 nM.

Q: With `O=C(O)CCNC(=O)c1cn2c(C(=O)NCC34CC5CC(CC(C5)C3)C4)cccc2n1` [Compound 544, N-({5-[(adamantan-1-ylmethyl)carbamoyl)imidazo[1,2-a]pyridin-2-yl}carbonyl)-beta-alanine] as the molecule, how does the IC50 read?
A: The IC50 was < 2000 nM.

Q: For `CC(C)CC(CNC(=O)c1cccc2nc(CCO)cn12)c1cccnc1` (stereo not drawn) [Compound 545, 2-(2-hydroxyethyl)-N-(4-methyl-2-pyridin-3-ylpentyl)imidazo[1,2-a]pyridine-5-carboxamide], which IC50 is on record?
A: The IC50 was < 2000 nM.

Q: `CCN(Cc1cn2c(C(=O)NCC34CC5CC(CC(C5)C3)C4)cccc2n1)C(=O)C(=O)O` [Compound 546, [({5-[(adamantan-1-ylmethyl)carbamoyl]imidazo[1,2-a]pyridin-2-yl}methyl)(ethyl)amino] (oxo)acetic acid] was tested. Which IC50 did it give?
A: Its IC50 is < 2000 nM.

Q: For `CC(C(=O)O)c1cn2c(C(=O)NCC34CC5CC(CC(C5)C3)C4)cccc2n1` (stereo not drawn) [Compound 547, 2-{5-[(adamantan-1-ylmethyl)carbamoyl]imidazo[1,2-a]pyridin-2-yl} propanoic acid], which IC50 is on record?
A: The IC50 was < 2000 nM.

Q: How did the IC50 turn out when `CCN(Cc1cn2c(C(=O)NCC34CC5CC(CC(C5)C3)C4)cccc2n1)C(=O)c1ncc[nH]1` [Compound 551, N-(adamantan-1-ylmethyl)-2-{[ethyl(1H-imidazol-2-ylcarbonyl)amino]methyl}imidazo[1,2-a]pyridine-5-carboxamide] was run?
A: The IC50 was < 2000 nM.

Q: With `CCN(Cc1cn2c(C(=O)NCC34CC5CC(CC(C5)C3)C4)cccc2n1)C(=O)c1nnc[nH]1` [Compound 552, N-(adamantan-1-ylmethyl)-2-{[ethyl(4H-1,2,4-triazol-3-ylcarbonyl)amino]methyl}imidazo[1,2-a]pyridine-5-carboxamide] as the molecule, how does the IC50 read?
A: The IC50 was < 2000 nM.

Q: Which IC50 does the source give for `CCN(CCO)Cc1cn2c(C(=O)NCC34CC5CC(CC(C5)C3)C4)cccc2n1` [Compound 553, N-(adamantan-1-ylmethyl)-2-{[ethyl(2-hydroxyethyl)amino]methyl}imidazo[1,2-a]pyridine-5-carboxamide] here?
A: The IC50 was < 2000 nM.

Q: `O=C(NCC12CC3CC(CC(C3)C1)C2)c1cccc2nc(C[S+]([O-])c3nnc[nH]3)cn12` (stereo not drawn) [Compound 554, N-(adamantan-1-ylmethyl)-2-[(4H-1,2,4-triazol-3-ylsulfinyl)methyl]imidazo [1,2-a]pyridine-5-carboxamide] was tested. Which IC50 did it give?
A: Its IC50 is < 2000 nM.

Q: With `CC1(C)[C@@H]2CC[C@@H](CNC(=O)c3cccc4nc(CC(=O)N5CCNCC5)cn34)[C@H]1C2` [Compound 555, N-{[(1R,2R,5R)-6,6-dimethylbicyclo[3.1.1]hept-2-yl]methyl}-2-(2-oxo-2-piperazin-1-ylethyl)imidazo[1,2-a]pyridine-5-carboxamide] as the molecule, how does the IC50 read?
A: Its IC50 is < 2000 nM.

Q: With `CC1CNCCN1C(=O)Cc1cn2c(C(=O)NC[C@@H]3CC[C@@H]4C[C@H]3C4(C)C)cccc2n1` (stereo partly drawn) [Compound 556, N-{[(1R,2R,5R)-6,6-dimethylbicyclo[3.1.1]hept-2-yl]methyl}-2-[2-(2-methylpiperazin-1-yl)-2-oxoethyl]imidazo[1,2-a]pyridine-5-carboxamide] as the molecule, how does the IC50 read?
A: The IC50 was < 2000 nM.

Q: Which IC50 does the source give for `C[C@H]1CNCCN1C(=O)Cc1cn2c(C(=O)NC[C@@H]3CC[C@@H]4C[C@H]3C4(C)C)cccc2n1` [Compound 557, N-{[(1R,2R,5R)-6,6-dimethylbicyclo[3.1.1]hept-2-yl]methyl}-2-{2-[(2S)-2-methylpiperazin-1-yl]-2-oxoethyl}imidazo [1,2-a]pyridine-5-carboxamide] here?
A: The IC50 was < 2000 nM.
